Results published in patent US20200291018A1, “TAM KINASE INHIBITORS” (SYROS PHARMACEUTICALS, INC., priority 2017, published 2020).

Experiments:
MERTK = target: T1, MERTK (Homo sapiens, UniProt Q12866); experiment: TR-FRET kinase activity assay, MERTK; format: biochemical; details: for IC50: TR-FRET activity assay, ATP at Km, 60 minutes, read-out: Mer IC50; for Mer/Flt3 ratio (FLT3 IC50/Mer IC50): ratio calculated as FLT3 IC50/Mer IC50
T1 sequence (Q12866 21-999): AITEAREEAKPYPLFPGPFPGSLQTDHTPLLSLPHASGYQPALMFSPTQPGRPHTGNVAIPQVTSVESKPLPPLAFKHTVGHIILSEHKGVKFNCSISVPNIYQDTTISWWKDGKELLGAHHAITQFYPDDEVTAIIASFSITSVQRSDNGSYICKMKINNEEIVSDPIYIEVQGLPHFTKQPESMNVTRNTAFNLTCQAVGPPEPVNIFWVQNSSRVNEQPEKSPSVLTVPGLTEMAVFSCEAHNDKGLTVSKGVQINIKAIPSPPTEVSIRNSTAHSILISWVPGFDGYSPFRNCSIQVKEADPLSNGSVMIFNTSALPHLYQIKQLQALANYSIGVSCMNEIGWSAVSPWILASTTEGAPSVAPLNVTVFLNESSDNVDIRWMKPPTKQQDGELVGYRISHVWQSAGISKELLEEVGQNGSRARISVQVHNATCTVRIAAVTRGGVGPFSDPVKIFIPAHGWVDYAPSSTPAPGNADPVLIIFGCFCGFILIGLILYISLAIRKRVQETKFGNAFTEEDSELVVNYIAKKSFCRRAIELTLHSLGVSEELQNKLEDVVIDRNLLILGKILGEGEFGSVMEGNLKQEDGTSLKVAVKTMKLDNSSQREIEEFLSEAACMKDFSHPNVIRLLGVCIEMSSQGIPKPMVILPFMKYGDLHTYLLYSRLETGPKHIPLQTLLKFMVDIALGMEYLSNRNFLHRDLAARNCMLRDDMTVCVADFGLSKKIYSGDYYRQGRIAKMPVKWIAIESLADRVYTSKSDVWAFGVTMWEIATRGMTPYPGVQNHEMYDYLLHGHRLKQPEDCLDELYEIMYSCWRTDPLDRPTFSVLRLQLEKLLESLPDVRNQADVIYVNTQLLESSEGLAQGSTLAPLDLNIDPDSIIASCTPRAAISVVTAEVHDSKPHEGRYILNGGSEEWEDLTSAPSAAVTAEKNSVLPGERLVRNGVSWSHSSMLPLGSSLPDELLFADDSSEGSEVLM
How it was run: (§1)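 IC50s come from loss of TR-FRET between a Eu-labeled phospho-site antibody and fluorescent tyrosine-phosphorylated peptide. Kinase reactions, initiated with Km ATP, ran 60 min at RT at pH 7.5 before EDTA quench.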

AXL = target: T2, AXL (Homo sapiens, UniProt P30530); experiment: TR-FRET kinase activity assay, AXL; format: biochemical; details: ATP at Km, 60 minutes
T2 sequence (P30530 26-894): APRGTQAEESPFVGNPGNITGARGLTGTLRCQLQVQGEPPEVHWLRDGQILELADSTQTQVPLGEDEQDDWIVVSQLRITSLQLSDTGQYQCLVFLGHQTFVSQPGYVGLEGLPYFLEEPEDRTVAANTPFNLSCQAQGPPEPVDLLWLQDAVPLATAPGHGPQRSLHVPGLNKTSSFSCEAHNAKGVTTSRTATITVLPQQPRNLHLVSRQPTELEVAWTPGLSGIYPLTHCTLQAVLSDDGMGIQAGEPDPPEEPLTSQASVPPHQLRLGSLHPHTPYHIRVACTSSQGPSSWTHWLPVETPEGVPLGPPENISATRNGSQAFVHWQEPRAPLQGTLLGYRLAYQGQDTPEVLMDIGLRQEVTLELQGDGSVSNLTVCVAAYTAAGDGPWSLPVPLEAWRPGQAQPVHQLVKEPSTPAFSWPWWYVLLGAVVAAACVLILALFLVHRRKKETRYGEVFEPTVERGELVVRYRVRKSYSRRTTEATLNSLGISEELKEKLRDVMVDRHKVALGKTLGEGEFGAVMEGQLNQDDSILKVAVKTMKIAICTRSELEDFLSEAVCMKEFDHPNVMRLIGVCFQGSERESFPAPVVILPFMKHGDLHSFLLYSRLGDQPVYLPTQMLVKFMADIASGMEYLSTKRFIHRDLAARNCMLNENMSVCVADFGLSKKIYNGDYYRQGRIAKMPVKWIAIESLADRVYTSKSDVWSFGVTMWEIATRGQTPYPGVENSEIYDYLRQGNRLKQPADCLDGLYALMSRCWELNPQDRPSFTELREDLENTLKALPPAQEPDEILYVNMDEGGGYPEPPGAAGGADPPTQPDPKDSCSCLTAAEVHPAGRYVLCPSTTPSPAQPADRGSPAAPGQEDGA
How it was run: as §1

Structure (SMILES) | IC50 (MERTK) | Mer/Flt3 ratio (FLT3 IC50/Mer IC50) (MERTK) | IC50 (AXL)
CCC(CC)Nc1ncc2c(=O)n(C3CCNCC3)cc([C@H]3CC[C@H](O)CC3)c2n1 [Compound 120] | ≤ 100 nM | +++ (a ratio of >100) | 1000 to 10000 nM
COC[C@H](C)Nc1ncc2c(OC3CCOCC3)ncc([C@H]3CC[C@H](O)CC3)c2n1 [Compound 122, (1S,4r)-4-(2-(((S)-1-methoxypropan-2-yl)amino)-5-((tetrahydro-2H-pyran-4-yl)oxy)pyrido[4,3-d]pyrimidin-8-yl)cyclohexan-1-ol] | ≤ 100 nM | +++ (a ratio of >100) | 100 to 1000 nM
CCCCNc1ncc2c(NC3CCOCC3)ncc([C@H]3CC[C@H](O)CC3)c2n1 [Compound 124] | ≤ 100 nM | + (a ratio of >2.0 and <10) | ≤ 100 nM
CCCCNc1ncc2c(OCCOC)ncc([C@H]3CC[C@H](O)CC3)c2n1 [Compound 125] | ≤ 100 nM | NS (a ratio of ≤2.0) | 100 to 1000 nM
CCC[C@H](C)Nc1ncc2c(=O)n(C3CCNCC3)cc([C@H]3CC[C@H](O)CC3)c2n1 [Compound 126] | ≤ 100 nM | +++ (a ratio of >100) | 100 to 1000 nM
COCCN1C(C)(C)CC(Oc2ncc([C@H]3CC[C@H](O)CC3)c3nc(N[C@@H](C)CC(F)(F)F)ncc23)CC1(C)C [Compound 355] | ≤ 100 nM | +++ (a ratio of >100) | ≤ 100 nM
Cc1ncc([C@H]2CC[C@H](O)CC2)c2nc(N[C@@H](C)CC(F)(F)F)ncc12 [Compound 356] | ≤ 100 nM | +++ (a ratio of >100) | 100 to 1000 nM
COC[C@H](C)Nc1ncc2c(O[C@H]3CCOC3)ncc([C@H]3CC[C@H](O)CC3)c2n1 [Compound 357] | ≤ 100 nM | +++ (a ratio of >100) | 1000 to 10000 nM
COC[C@H](C)Nc1ncc2c(OC3CCOCC3)ncc(C3CCC(F)(F)CC3)c2n1 [Compound 358] | ≤ 100 nM | ++ (a ratio of between 10 and 100) | 1000 to 10000 nM
CCOc1ncc([C@H]2CC[C@H](O)CC2)c2nc(N[C@@H](C)CC(F)(F)F)ncc12 [Compound 359] | ≤ 100 nM | +++ (a ratio of >100) | 100 to 1000 nM
C[C@@H](CC(F)(F)F)Nc1ncc2c(O[C@H]3C[C@@H](O)C3)ncc([C@H]3CC[C@H](O)CC3)c2n1 [Compound 360] | ≤ 100 nM | +++ (a ratio of >100) | 100 to 1000 nM
COC[C@H](C)Nc1ncc2c(OC3CC(C)(C)N(C(C)=O)C(C)(C)C3)ncc([C@H]3CC[C@H](O)CC3)c2n1 [Compound 361] | ≤ 100 nM | +++ (a ratio of >100) | 1000 to 10000 nM
COC[C@H](C)Nc1ncc2c(Nc3ccncc3)ncc([C@H]3CC[C@H](O)CC3)c2n1 [Compound 362] | ≤ 100 nM | +++ (a ratio of >100) | 1000 to 10000 nM
COC[C@H](C)Nc1ncc2c(Nc3cccnc3)ncc([C@H]3CC[C@H](O)CC3)c2n1 [Compound 363] | ≤ 100 nM | +++ (a ratio of >100) | 1000 to 10000 nM
C[C@@H](CC(F)(F)F)Nc1ncc2c(O[C@H]3C[C@H](O)C3)ncc([C@H]3CC[C@H](O)CC3)c2n1 [Compound 364] | ≤ 100 nM | +++ (a ratio of >100) | 100 to 1000 nM
C[C@H](Nc1ncc2c(OC3CCOCC3)ncc([C@H]3CC[C@H](O)CC3)c2n1)C(F)F [Compound 365] | ≤ 100 nM | +++ (a ratio of >100) | 100 to 1000 nM
COC[C@H](C)Nc1ncc2c(O[C@@H]3CCN(C)C3)ncc([C@H]3CC[C@H](O)CC3)c2n1 [Compound 366] | ≤ 100 nM | +++ (a ratio of >100) | 1000 to 10000 nM
CC[C@@H](C)Nc1ncc2c(OC3CC(C)(C)N(C)C(C)(C)C3)ncc([C@H]3CC[C@H](O)CC3)c2n1 [Compound 367] | ≤ 100 nM | +++ (a ratio of >100) | ≤ 100 nM
COC[C@H](C)Nc1ncc2c(O[C@H]3CCN(C)C3)ncc([C@H]3CC[C@H](O)CC3)c2n1 [Compound 368] | ≤ 100 nM | +++ (a ratio of >100) | 1000 to 10000 nM
COCCN1CCC(Oc2ncc([C@H]3CC[C@H](O)CC3)c3nc(N[C@@H](C)CC(F)(F)F)ncc23)CC1 [Compound 369] | ≤ 100 nM | +++ (a ratio of >100) | 100 to 1000 nM
C[C@@H](CC(F)(F)F)Nc1ncc2c(OC3C[C@H]4CC[C@@H](C3)N4C)ncc([C@H]3CC[C@H](O)CC3)c2n1 (stereo partly drawn) [Compound 370] | ≤ 100 nM | +++ (a ratio of >100) | ≤ 100 nM
COC[C@H](C)Nc1ncc2c(OC3C[C@@H](C)N(C)[C@@H](C)C3)ncc([C@H]3CC[C@H](O)CC3)c2n1 (stereo partly drawn) [Compound 371] | ≤ 100 nM | +++ (a ratio of >100) | 100 to 1000 nM
COC[C@H](C)Nc1ncc2c(Nc3ccnc(C)c3)ncc([C@H]3CC[C@H](O)CC3)c2n1 [Compound 372] | ≤ 100 nM | +++ (a ratio of >100) | 1000 to 10000 nM
C[C@@H](CC(F)(F)F)Nc1ncc2c(OC3CCN(c4ncccn4)CC3)ncc([C@H]3CC[C@H](O)CC3)c2n1 [Compound 373] | ≤ 100 nM | +++ (a ratio of >100) | 100 to 1000 nM
COC[C@H](C)Nc1ncc2c(Nc3ccc(C)nc3)ncc([C@H]3CC[C@H](O)CC3)c2n1 [Compound 374] | ≤ 100 nM | +++ (a ratio of >100) | 1000 to 10000 nM
Cc1nccc(N2CCC(Oc3ncc([C@H]4CC[C@H](O)CC4)c4nc(N[C@@H](C)CC(F)(F)F)ncc34)CC2)n1 [Compound 375] | ≤ 100 nM | +++ (a ratio of >100) | 100 to 1000 nM
COCCN1C(C)(C)CC(Oc2ncc([C@H]3CC[C@H](O)CC3)c3nc(N[C@@H](C)CC#N)ncc23)CC1(C)C [Compound 376] | ≤ 100 nM | +++ (a ratio of >100) | 100 to 1000 nM
COCC(=O)N1C(C)(C)CC(Oc2ncc([C@H]3CC[C@H](O)CC3)c3nc(N[C@@H](C)CC(F)(F)F)ncc23)CC1(C)C [Compound 377] | ≤ 100 nM | +++ (a ratio of >100) | 1000 to 10000 nM
C[C@@H](CC(F)(F)F)Nc1ncc2c(OC3CCN([C@@H]4CCOC4)CC3)ncc([C@H]3CC[C@H](O)CC3)c2n1 [Compound 378] | ≤ 100 nM | +++ (a ratio of >100) | 100 to 1000 nM
COCCN1C(C)(C)CC(Oc2ncc([C@H]3CC[C@H](O)CC3)c3nc(NC4(C)CC4)ncc23)CC1(C)C [Compound 379] | ≤ 100 nM | +++ (a ratio of >100) | ≤ 100 nM
